Results published in patent EP0745595A1, “3-(3-Aryloxyphenyl)-1-(substituted methyl)-s-triazine-2,4,6-oxo or thiotrione herbicidal agents” (American Cyanamid Company, priority 1995, dated 1996).

What was measured:
Type in all cases: in vivo
[1] = test system: SETARIA VIRIDIS, (L) BEAU; test: Postemergence herbicidal evaluation, SETVI (Foxtail, Green); set-up: key to SETVI rating / Herbicidal effect rating, SETVI / SETVI: 0-9 visual rating scale vs untreated control
Procedure, shortened: (§1)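 Under usual greenhouse care after spraying, plants were examined four to five weeks on and given a 0–9 score relative to control. Application rate was about 0.125–0.500 kg/ha on ~two-week-old seedlings.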

[2] = test system: AMBROSIA ARTEMISIIFOLIA, L.; test: Postemergence herbicidal evaluation, AMBEL (Ragweed, Common)
Procedure, shortened: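 Common ragweed (Ambrosia artemisiifolia) seedlings were raised in jiffy flats for roughly two weeks, then sprayed postemergence through a nozzle at 40 psi with the test compound dispersed in 50/50 acetone/water carrying 0.5% TWEEN®20. The plants were kept on greenhouse benches under conventional care. Four to five weeks later, injury was rated visually on a 0-9 scale, and repeat tests were averaged.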

CHENOPODIUM ALBUM, L. [3] = test: Preemergence herbicidal evaluation, CHEAL (Lambsquarters, Common); details: rated four to five weeks after treatment
Procedure, shortened: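 Seeds sown in potting soil cups, then sprayed preemergence with aqueous acetone compound solution at about 0.125 to 0.50 kg per hectare. Greenhouse-grown, rated 4–5 weeks after treatment on a 0–9 visual scale against control.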

[4] = test system: TRITICUM AESTIVUM, CV. APOLLO; test: Postemergence herbicidal evaluation, TRZAWO (Wheat, Winter, CV. APOLLO)
Experimental: In the tests, seedling plants are grown in jiffy flats for about two weeks. The test compounds are dispersed in 50/50 acetone/water mixtures containing 0.5% TWEEN®20, a polyoxyethylene sorbitan monolaurate surfactant of Atlas Chemical Industries, […] through a spray nozzle operating at 40 psi for a predetermined time. After spraying, the plants are placed on greenhouse benches and are cared for in the usual manner, commensurate with conventional greenhouse practices. From four to five weeks after treatment, the seedling plants are examined and rated according to the rating system set forth below. Where more than one test is involved for a given compound, the data are averaged.
(§2) Plant species employed in these evaluations are reported by header abbreviation, common name and scientific name.
(§3) Results of herbicide evaluation are expressed on a rating scale (0-9). The scale is based upon a visual observation of plant stand, vigor, malformation, size, chlorosis and overall plant appearance as compared with a control.

[5] = test system: ECHINOCHLOA CRUS-GALLI, (L) BEAU; test: Postemergence herbicidal evaluation, ECHCG (Barnyardgrass); set-up: key to ECHCG rating / Herbicidal effect rating, ECHCG / ECHCG: 0-9 visual rating scale vs untreated control
Procedure, shortened: as §1

[6] = test system: ORYZA SATIVA, L. TEBONNET; test: Rice tolerance to post-transplant applications under flooded paddy conditions, ORYSAT (Rice, Tebonnet); details: for Herbicidal effect rating, ORYSAT: 0.500 kg/ha, post-transplant rice, 3-4 weeks after treatment; for ORYSAT: post-transplanted rice
Procedure, shortened: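 Post-transplant paddy test: compound applied 3 d after transplanting to flooded soil (1.5-3 cm water), ~0.063-0.5 kg/ha a.i., 50/50 aq/acetone. Silt loam, 2 × 10-d seedlings/pot. Greenhouse 3-4 wk, visual 0-9 score vs control.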

CHENOPODIUM ALBUM, L. [7] = test: Postemergence herbicidal evaluation, CHEAL (Lambsquarters, Common)
Procedure, shortened: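 Seedlings of common lambsquarters (Chenopodium album) were raised in jiffy flats for roughly two weeks, then sprayed postemergence through a nozzle at 40 psi with test compound dispersed in 50/50 acetone/water containing 0.5% TWEEN®20 surfactant. Plants were kept on greenhouse benches under standard care and rated visually on a 0-9 scale versus controls.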

GALIUM APARINE = test: Postemergence herbicidal evaluation, GALAP (Galium); set-up: key to GALAP rating / Herbicidal effect rating, GALAP / GALAP: 0-9 visual rating scale vs untreated control
Procedure, shortened: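 Galium (GALAP) seedlings were raised in jiffy flats for about two weeks, then sprayed with test compounds dispersed in 50/50 acetone/water containing 0.5% TWEEN®20, delivered through a nozzle at 40 psi. Plants were kept on greenhouse benches and visually rated 0-9 against a control four to five weeks later; repeat tests were averaged.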

ZEA MAYS L. = test: Postemergence herbicidal evaluation, ZEAMX (Corn, Field)
Experimental: In the tests, seedling plants are grown in jiffy flats for about two weeks. The test compounds are dispersed in 50/50 acetone/water mixtures containing 0.5% TWEEN®20, a polyoxyethylene sorbitan monolaurate surfactant of Atlas Chemical Industries, […] to the plants through a spray nozzle operating at 40 psi for a predetermined time. After spraying, the plants are placed on greenhouse benches and are cared for in the usual manner, commensurate with conventional greenhouse practices. From four to five weeks after treatment, the seedling plants are examined and rated according to the rating system set forth below. Where more than one test is involved for a given compound, the data are averaged.
as §2, §3

CASSIA OBTUSIFOLIA, L. = test: Postemergence herbicidal evaluation, CASOB (Sicklepod); set-up: key to CASOB rating / Herbicidal effect rating, CASOB / CASOB: 0-9 visual rating scale vs untreated control
Procedure, shortened: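 Greenhouse postemergence test. Seedlings (~2 wk) sprayed at 40 psi; dose ~0.125–0.500 kg/ha in acetone/water (1:1), 0.5% TWEEN 20. Scored 0–9 at 4–5 wk.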

IPOMOEA SPP. = test: Postemergence herbicidal evaluation, IPOSS (Morningglory spp.);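 note: higher means more injury with 8 approaching complete kill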
Procedure, shortened: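 Seedlings of morningglory (Ipomoea spp.) were raised in jiffy flats for roughly two weeks. They were then sprayed postemergence through a nozzle at 40 psi with test compound dispersed in 50/50 acetone/water containing 0.5% TWEEN®20 surfactant. Plants were kept on greenhouse benches under standard care and visually rated 0-9 against controls four to five weeks after treatment.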

COC(=O)Cn1c(=O)n(C)c(=O)n(-c2cc(Oc3ccc(SC)cc3Cl)ccc2[N+](=O)[O-])c1=O [Compound 34, Methyl 3-{5-[2-chloro-4-(methylthio)-phenoxy]-2-nitrophenyl}tetrahydro-5-methyl-2,4,6-trioxo-s-triazine-1(2H)-acetate]
2.0: AMBEL rating ([2]; Rate 0.125 kg/ha) | AMBEL rating ([2]; Rate 0.250 kg/ha) | AMBEL rating ([2]; Rate 0.500 kg/ha) | TRZAWO rating ([4]; Rate 0.125 kg/ha) | TRZAWO rating ([4]; Rate 0.250 kg/ha) | TRZAWO rating ([4]; Rate 0.500 kg/ha)
0.0: SETVI rating ([1]; Rate 0.125 kg/ha) | SETVI rating ([1]; Rate 0.250 kg/ha) | SETVI rating ([1]; Rate 0.500 kg/ha) | CHEAL herbicidal rating (CHENOPODIUM ALBUM, L. [3]; Rate 0.125 kg/ha) | CHEAL herbicidal rating (CHENOPODIUM ALBUM, L. [3]; Rate 0.250 kg/ha) | CHEAL herbicidal rating (CHENOPODIUM ALBUM, L. [3]; Rate 0.500 kg/ha) | ECHCG rating ([5]; Rate 0.125 kg/ha) | ECHCG rating ([5]; Rate 0.250 kg/ha) | ECHCG rating ([5]; Rate 0.500 kg/ha) | Herbicidal effect rating, ORYSAT [6]

COC(=O)Cn1c(=O)n(C)c(=O)n(-c2cc(Oc3cc(Cl)cc(Cl)c3)ccc2[N+](=O)[O-])c1=O [Compound 35, Methyl 3-[5-(3,5-dichlorophenoxy)-2-nitrophenyl]tetrahydro-5-methyl-2,4,6-trioxo-s-triazine-1(2H)-acetate]
0.0: CHEAL rating (CHENOPODIUM ALBUM, L. [7]; Rate 0.125 kg/ha) | CHEAL rating (CHENOPODIUM ALBUM, L. [7]; Rate 0.250 kg/ha) | CHEAL rating (CHENOPODIUM ALBUM, L. [7]; Rate 0.500 kg/ha) | SETVI rating ([1]; Rate 0.125 kg/ha) | SETVI rating ([1]; Rate 0.250 kg/ha) | SETVI rating ([1]; Rate 0.500 kg/ha) | AMBEL rating ([2]; Rate 0.125 kg/ha) | AMBEL rating ([2]; Rate 0.250 kg/ha) | AMBEL rating ([2]; Rate 0.500 kg/ha) | CHEAL herbicidal rating (CHENOPODIUM ALBUM, L. [3]; Rate 0.500 kg/ha) | TRZAWO rating ([4]; Rate 0.125 kg/ha) | TRZAWO rating ([4]; Rate 0.250 kg/ha) | TRZAWO rating ([4]; Rate 0.500 kg/ha) | ECHCG rating ([5]; Rate 0.125 kg/ha) | ECHCG rating ([5]; Rate 0.250 kg/ha) | ECHCG rating ([5]; Rate 0.500 kg/ha) | GALAP rating (GALIUM APARINE; Rate 0.125 kg/ha) | GALAP rating (GALIUM APARINE; Rate 0.250 kg/ha) | GALAP rating (GALIUM APARINE; Rate 0.500 kg/ha) | CASOB rating (CASSIA OBTUSIFOLIA, L.; Rate 0.125 kg/ha) | CASOB rating (CASSIA OBTUSIFOLIA, L.; Rate 0.250 kg/ha) | CASOB rating (CASSIA OBTUSIFOLIA, L.; Rate 0.500 kg/ha) | Herbicidal effect rating, ORYSAT [6]
1.0: ZEAMX rating (ZEA MAYS L.; Rate 0.125 kg/ha) | ZEAMX rating (ZEA MAYS L.; Rate 0.250 kg/ha) | ZEAMX rating (ZEA MAYS L.; Rate 0.500 kg/ha)

Cn1c(=O)[nH]c(=O)n(-c2cccc(Oc3ccc(C(F)(F)F)cc3Cl)c2)c1=O [E, reference compound]
6.0: IPOSS (IPOMOEA SPP.; Rate 0.500 kg/ha)
3.0: ECHCG ([5]; Rate 0.500 kg/ha) | GALAP (GALIUM APARINE; Rate 0.063 kg/ha) | CASOB (CASSIA OBTUSIFOLIA, L.; Rate 0.125 kg/ha)
1.0: SETVI ([1]; Rate 0.250 kg/ha) | TRZAWO ([4]; Rate 0.063 kg/ha) | TRZAWO ([4]; Rate 0.125 kg/ha) | TRZAWO ([4]; Rate 0.250 kg/ha) | ECHCG ([5]; Rate 0.250 kg/ha)
8.0: CHEAL (CHENOPODIUM ALBUM, L. [7]; Rate 0.250 kg/ha) | CHEAL (CHENOPODIUM ALBUM, L. [7]; Rate 0.500 kg/ha)
4.0: AMBEL ([2]; Rate 0.250 kg/ha) | GALAP (GALIUM APARINE; Rate 0.125 kg/ha)
2.0: SETVI ([1]; Rate 0.500 kg/ha) | AMBEL ([2]; Rate 0.063 kg/ha) | AMBEL ([2]; Rate 0.125 kg/ha) | CASOB (CASSIA OBTUSIFOLIA, L.; Rate 0.063 kg/ha) | CASOB (CASSIA OBTUSIFOLIA, L.; Rate 0.500 kg/ha)
0.0: SETVI ([1]; Rate 0.063 kg/ha) | SETVI ([1]; Rate 0.125 kg/ha) | ECHCG ([5]; Rate 0.063 kg/ha) | ECHCG ([5]; Rate 0.125 kg/ha) | ORYSAT ([6]; Rate 0.250 kg/ha) | ORYSAT ([6]; Rate 0.500 kg/ha) | ORYSAT ([6]; Rate 1.000 kg/ha)
5.0: IPOSS (IPOMOEA SPP.; Rate 0.063 kg/ha) | IPOSS (IPOMOEA SPP.; Rate 0.125 kg/ha) | IPOSS (IPOMOEA SPP.; Rate 0.250 kg/ha) | AMBEL ([2]; Rate 0.500 kg/ha) | GALAP (GALIUM APARINE; Rate 0.250 kg/ha) | CASOB (CASSIA OBTUSIFOLIA, L.; Rate 0.250 kg/ha)
1.5: TRZAWO ([4]; Rate 0.500 kg/ha) | ZEAMX (ZEA MAYS L.; Rate 0.063 kg/ha) | ZEAMX (ZEA MAYS L.; Rate 0.125 kg/ha) | ZEAMX (ZEA MAYS L.; Rate 0.250 kg/ha)
2.5: GALAP (GALIUM APARINE; Rate 0.500 kg/ha) | ZEAMX (ZEA MAYS L.; Rate 0.500 kg/ha)
7.0: CHEAL (CHENOPODIUM ALBUM, L. [7]; Rate 0.063 kg/ha) | CHEAL (CHENOPODIUM ALBUM, L. [7]; Rate 0.125 kg/ha)
